The record followed here is article PMC12056667 (Chemical Science, 2025).

The target of experiment [1] is Tet(X4) (Escherichia coli, UniProt A0A3T0V9Y5). The experiment in a line: Absorbance activity assay (tigecycline turnover, A400). The experiment is classed as biochemical. The text has this:
We then tested the binding of reported type 1 TDase inhibitors to Tet(X4) (Fig. 3f, ESI Fig. S17 ^†).[33,38,39] […] These compounds gave similar apparent IC50^app values, in accord with trends in IC50 measurements performed by Markley et al.[33] […] We also developed a complementary endpoint activity assay where the turnover of tigecycline by Tet(X4) in a 96-well plate was quenched by addition of 1%v/v formic acid and analysed chromatographically. The peak integrals of tigecycline and its hydroxylated degradation product at 254 nm following UPLC analysis were measured to determine turnover (Fig. 5a). As this method separates components by chromatography, it enables IC50 measurements independent of potential interference from UV-active inhibitors (Fig. 5b). […] The apparent synergy of AZT with tetracyclines against whole cells expressing Tet(X4)[40] is therefore interesting and may derive from the proposed ability of AZT to interfere with DNA synthesis in bacteria,[40,53] or other unidentified mechanisms. […] Note, however, that plumbagin and 2-MNQ are naphthoquinones, which are well-characterised redox-active pan-assay interference (PAINS) moieties.[54]
233 Absorbance Activity Assays
234 A solution containing 100 mM TAPS (pH 8.5), 2 µM FAD, 10 mM MgCl2 and 100 nM Tet(X4) was
235 dispensed into a 384 well µClear plate (Greiner Bio-One), 25 µL per well, using a microplate reagent
236 dispenser. A 3-fold, 10-point dilution series of the substrates and inhibitors was made in DMSO with
237 the highest concentration of 50 mM, unless otherwise stated, and transferred to the enzyme solution in
238 technical quadruplicate using a CyBi-Well (CyBio) liquid-handling robot (1 µL per well). On each plate,
239 a column of no enzyme negative controls and no inhibitor (DMSO only) positive controls were
240 included. The plate was briefly centrifuged (1000 rpm), then incubated (ambient temperature,15 min).
241 A solution containing 100 mM TAPS (pH 8.5), 50 µM tigecycline and 500 µM NADPH was then
242 dispensed, with 25 µL per well. The plate was briefly centrifuged (1000 rpm), then transferred to a
243 CLARIOstar Plus Microplate reader. The absorbance was monitored at wavelength […] over the
244 course of 2 hours (23 flashes / cycle, 180 s cycle time, 41 data points, 25 ° C). The initial rate was
245 calculated by measuring the rate of change of A400 during the initial linear regime. Initial rates were
246 normalised between positive and negative controls. The normalised % response was plotted as a
247 function of log10([Inhibitor]) in molar units, and the IC50 was determined as above. […]

The subject of experiment [2] is tigecycline resistant Salmonella, E. coli, Acinetobacter and Proteus isolates containing tet(X) genes. The experiment is described as follows: Checkerboard assays across the panel of isolates. The experiment is classed as cell-based. The settings on record: against all of the strains tested. Here is the method:
MIC tests and checkerboard assays were performed in U-bottom, 96-well microtiter plates using a modified broth microdilution protocol following CLSI guidelines. Cation-adjusted Mueller-Hinton Broth (CAMHB) was prepared fresh on the day of testing.[74] In brief, assays were set up in a total volume of 100 μL per well and titrations comprised seven 2-fold dilutions of inhibitors and ten 2-fold dilutions of tigecycline in CAMHB. Bacterial colonies were selected from an overnight culture on MHA plates (supplemented with 0.2%w/vL-arabinose for E. coli TOP10 containing pBAD-TOPO-Tet(X4)) and were suspended in 0.9% saline solution to achieve a 0.5 McFarland standard. A 100 μL aliquot of this suspension was then diluted into 9.9 mL of CAMHB to yield approximately 1.5 × 10^6 cfu mL^−1. 50 μL of the suspension was then added to each well of a microtiter plates. Plates were incubated at 37 °C for 18 h. At least 2 replicates were conducted for each combination. E. coli TOP10 + pBAD-TOPO-Tet(X4) cells were grown in the absence and presence of 0.2%w/vL-arabinose. […] As a measure of synergy, fractional inhibitory concentration index (FICI) was calculated as FICA + FICB, where FICA and FICB are the MICcombination/MICalone for each agent, respectively.[76] […] In cases where the MIC exceeded or was below the measured range, the borderline value was taken to calculate the FIC index.

`Cc1c2c(c(O)c3c(O)cccc13)C(=O)[C@]1(O)C(=O)C(C(N)=O)=C(O)[C@@H](N(C)C)[C@@H]1C2` [Anhydrotetracycline]: the half-inhibitory concentration (IC50) in experiment [1] was found to be 7.6 ± 2 µM.
For `[H]/N=C(/NCCCCC)N/N=C/c1c[nH]c2ccc(OC)cc12` [Tegaserod], the “reduction of the tigecycline MIC in combination” value in experiment [2] is given as 2–8 fold.

The IC50 is the midpoint of a concentration-inhibition curve.
